Measured values reported in patent publication US8080580B2, “Dioxa-bicyclo[3.2.1]octane-2,3,4-triol derivatives” (Pfizer Inc., priority 2008, dated 2011).

Columns and labels:
[1] = Pharmacokinetic testing in rats (IV or PO); assay type: in vivo; conditions: rat
Protocol: Examples 1A, 2A, 4A, 12A, and 14A were tested in rats to assess pharmacokinetic parameters including maximum concentration (Cmax), area under the plasma concentration time curve (AUC), clearance (CL), steady state volume of distribution (Vss), half life (t1/2), and bioavailability (F). Male Sprague Dawley rats (˜300 g) were used. Rats received compound by intravenous (IV) or oral gavage (PO) administration and the doses tested including vehicle to formulate dosing solutions are listed in Table 5.
Following IV or PO administration, 0.2 mL blood was sampled from the jugular vein at various timepoints (Table 5). Twenty microL aliquots of plasma samples and standards were subjected to protein precipitation with acetonitrile containing an internal standard. Samples were vortexed and centrifuged to obtain supernatant which was analyzed by LC-MS/MS. Analyst (Version 1.4.1) was used to measure peak areas and peak area ratios of analyte to internal standard were calculated. LC-MS/MS conditions are as follows: Mass Spectrometer+Source Type was Sciex API 4000−Turbo Spray; HPLC pump was Shimadzu; Autosampler was CTC PAL Autosampler; Injection volume was 3.0 to 10 microL; A gradient was used with mobile phase A: 10 mM ammonium acetate and 1% Isopropyl alcohol in water; B: Acetonitrile; Flowrate 0.300 mL per minute (Column 2.0×30 mm 5 microm LUNA C18 column (phenomenex)). Detection mode was negative.
A calibration curve was constructed from the peak area ratios of the standards to the internal standard by applying a weighted linear (1/x or 1/x2) regression. The dynamic range of the standard curve was 5.00 ng/mL to 5000 ng/mL.
Pharmacokinetic parameters were determined from individual animal data using non-compartmental analysis in Watson (version 7.2). Concentrations below the limit of quantitation (BLQ) were recorded as 0 ng/mL for use in calculations.
The following calculations were used: AUC(0−τ)=Determined using the linear trapezoidal method AUC(0−□)=AUC(0−τ) plus extrapolated area determined by dividing plasma concentration at τ by the slope of the terminal log-linear phase CL=Dose/AUC(0−∞) Vdss=CL×MRT Cmax=Recorded directly from plasma concentration time curve Tmax=Recorded directly from plasma concentration time curve t½=ln(0.5)/slope of the terminal log-linear phase F %=AUC(0−∞)PO per dose/AUC(0−∞)IV per dose C(0)=Extrapolated by linear regression from the apparent distribution phase following IV administration MRT=AUMC(AUC(0−∞)/AUC(0−∞)

Male Sprague Dawley rats = assay: In-vivo assay: urinary glucose excretion in rats after oral gavage; conditions: rat, urine collected for 24 hours
Protocol: Examples 1A and 4A were tested in rats to assess inhibition of glucose transport via urinary glucose excretion. Male Sprague Dawley rats (˜300 g) were singly housed in metabolic cages for urine collection. Rats had access to standard laboratory chow and water ad libitum. Rats (n=2 to 5/group) received vehicle or compound by oral gavage. Dosing solutions were 0.03 mg/mL, 0.3 mg/mL, 0.9 mg/mL, 3 mg/mL, 9 mg/mL and 18 mg/mL for the 0.1 mg/kg, 1 mg/kg, 3 mg/kg, 10 mg/kg, 30 mg/kg and 60 mg/kg doses respectively. Dosing volume was 1 mL/300 g of body weight for all doses. […] The vehicle was 20% v/v PEG400 and 24% v/v hydroxypropyl beta cyclodextrin; HPBCD. Following oral administration, urine was collected for 24 hours. Glucose concentration was measured in urine by UV absorbance spectrophotometry at 340 nm using a Roche Hitachi 917 spectrophotometer (Diamond Diagnostics, Holliston, Mass.). The total amount of glucose excreted in the urine was calculated as the product of urine concentration and urine volume using the formula below: urinary glucose excreted (mg)/200 g body weight=urinary glucose concentration (mg/dL)×urine volume (dL)×200/rat body weight (g). […] Blood (0.1 mL) was collected from the PK satellite group animals at 1, 2, 4, 7, 24 hours postdose to obtain plasma and analyzed by LC-MS/MS.

[2] = male, Sprague Dawley, plasma, IV, 2 mg/kg
[3] = male, Sprague Dawley, plasma, PO, 10 mg/kg, PEG200/0.5% MC
[4] = male, Sprague Dawley, plasma, PO, 2 mg/kg, Tween 80/0.5% MC
[5] = male, Sprague Dawley, plasma, PO, 5 mg/kg, 20% PEG/24% HBCD

Structure (SMILES): COc1ccc(Cc2cc([C@]34OC[C@](CO)(O3)[C@@H](O)[C@H](O)[C@H]4O)ccc2C)cc1 [Example 1A, (1S,2S,3S,4R,5S)-1-hydroxymethyl-5-[3-(4-methoxy-benzyl)-4-methyl-phenyl]-6,8-dioxa-bicyclo[3.2.1]octane-2,3,4-triol]
- AUC(0-inf) [1, 2]: 947 ng·h/mL
- AUC(0-inf) [1, 3]: 2680 ng·h/mL
- Cmax [1, 3]: 1650 ng/mL
- half-life [1, 3]: 2.82 h
- CL ([1]; IV, 2 mg/kg): 37.1 mL/min/kg
- Vss ([1]; IV, 2 mg/kg): 1.71 L/kg
- t1/2 ([1]; IV, 2 mg/kg): 0.962 h
- F ([1]; PO, 10 mg/kg, PEG200/0.5% MC): 56.5%
- Mean UGE (mg/200 g of body weight) ± SEM (n = 5) (Male Sprague Dawley rats; 10 mg/kg): 2049 ± 382.2 mg/200 g of body weight

Structure (SMILES): CCOc1ccc(Cc2cc([C@]34OC[C@](CO)(O3)[C@@H](O)[C@H](O)[C@H]4O)ccc2Cl)cc1 [Example 4A, (1S,2S,3S,4R,5S)-5-[4-chloro-3-(4-ethoxy-benzyl)-phenyl]-1-hydroxymethyl-6,8-dioxa-bicyclo[3.2.1]octane-2,3,4-triol]
- AUC(0-inf) [1, 2]: 8480 ng·h/mL
- Vd ([1]; male, Sprague Dawley, plasma, IV, 2 mg/kg, read-out: Vss): 1.1 L/kg
- AUC(0-inf) [1, 4]: 5650 ng·h/mL
- Cmax [1, 4]: 772 ng/mL
- half-life [1, 4]: 3.7 h
- AUC(0-inf) [1, 5]: 16800 ng·h/mL
- Cmax [1, 5]: 1190 ng/mL
- CL ([1]; IV, 2 mg/kg): 4.04 mL/min/kg
- t1/2 ([1]; IV, 2 mg/kg): 4.1 h
- F ([1]; PO, 2 mg/kg, Tween 80/0.5% MC): 67%
- F ([1]; PO, 5 mg/kg, 20% PEG/24% HBCD): 79%
- Mean UGE (mg/200 g of body weight) ± SEM (n = 5) (Male Sprague Dawley rats; 0.1 mg/kg): 389.0 ± 62.54 mg/200 g of body weight
- Mean UGE (mg/200 g of body weight) ± SEM (n = 5) (Male Sprague Dawley rats; 1 mg/kg): 1519 ± 52.02 mg/200 g of body weight
- Mean UGE (mg/200 g of body weight) ± SEM (n = 5) (Male Sprague Dawley rats; 3 mg/kg): 1937 ± 101.1 mg/200 g of body weight
- Mean UGE (mg/200 g of body weight) ± SEM (n = 5) (Male Sprague Dawley rats; 10 mg/kg): 2145 ± 132.3 mg/200 g of body weight
- Mean UGE (mg/200 g of body weight) ± SEM (n = 5) (Male Sprague Dawley rats; 30 mg/kg): 2554 ± 141.1 mg/200 g of body weight
- Mean UGE (mg/200 g of body weight) ± SEM (n = 5) (Male Sprague Dawley rats; 60 mg/kg): 2437 ± 116.7 mg/200 g of body weight
